Source: PubChem BioAssay (NCI)
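Growth conditions: 96-well plates. Treatment: test compound, 48 hours, 5 concentrations. Analysis: linear interpolation between bracketing concentrations; unreached endpoints set to highest concentration. The concentration for 50% growth inhibition is given as GI50. The concentration for full growth arrest is given as TGI.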

Experiments:
Test in all cases: NCI-60 cell line screen, 48 h
[1] = test system: CCRF-CEM leukemia
[2] = test system: DU-145 prostate
[3] = test system: MALME-3M melanoma
[4] = test system: A498 renal
[5] = test system: TK-10 renal
[6] = test system: SNB-19 CNS
[7] = test system: SW-620 colon
[8] = test system: BT-549 breast
[9] = test system: IGROV1 ovarian
[10] = test system: NCI/ADR-RES ovarian

Compound | TGI [1] [µM] | TGI [2] [µM] | TGI [3] [µM] | TGI [4] [µM] | TGI [5] [µM] | TGI [6] [µM] | TGI [7] [µM] | TGI [8] [µM] | TGI [9] [µM] | TGI [10] [µM] | GI50 [1] [µM] | GI50 [2] [µM] | GI50 [3] [µM] | GI50 [4] [µM] | GI50 [5] [µM] | GI50 [6] [µM] | GI50 [7] [µM] | GI50 [8] [µM] | GI50 [9] [µM] | GI50 [10] [µM]
Cc1cn(Cc2cnnn2CC2OC(n3cc(C)c(=O)[nH]c3=O)CC2O)c(=O)[nH]c1=O (configuration not stated) | > 100 | > 100 | > 100 | > 100 | > 100 | > 100 | > 100 | > 100 | > 100 | > 100 |  |  |  |  |  |  |  |  |  | 
O=C(Nc1ccccc1)N(CCCCN(Cc1ccccc1)C(=O)Nc1ccccc1)Cc1ccccc1 | > 100 | > 100 | > 100 | > 100 | > 100 | > 100 | > 100 | > 100 | > 100 | > 100 |  |  |  |  |  |  |  |  |  | 
COC1OC2COC1(OC)C1OC(C)(C)OC21 (configuration not stated) | > 100 | > 100 | > 100 | > 100 | > 100 | > 100 | > 100 | > 100 | > 100 | > 100 |  |  |  |  |  |  |  |  |  | 
COC(=O)C(Cc1ccccc1)NP(=O)(O)OCC1OC(n2cc(F)c(=O)[nH]c2=O)CC1O (configuration not stated) |  | > 100 | > 100 | > 100 | > 100 | > 100 | > 100 | > 100 | > 100 | > 100 |  |  |  |  |  |  |  |  |  | 
O=c1[nH]nc(-c2ccccc2)n1/N=C/c1cccnc1 | > 100 | > 100 | > 100 | > 100 | > 100 | > 100 | > 100 | > 100 | > 100 | > 100 |  |  |  |  |  |  |  |  |  | 
C(CCCCc1nnc(N2CCCCC2)o1)CCCc1nnc(N2CCCCC2)o1 | > 100 | > 100 | > 100 | > 100 | > 100 | > 100 | > 100 | > 100 | > 100 | > 100 |  |  |  |  |  |  |  |  |  | 
COC(=O)c1c(O)ccc2c1c1c(n2Cc2cccc(C)c2)C(=O)c2ccccc2C1=O | 22.5 | 32.6 | 34.1 | 33.9 | 25.2 | 27.9 | 32.4 | 29 | 24.2 | 25 |  |  |  |  |  |  |  |  |  | 
COc1ccc(-c2cc(-c3ccc(Nc4ccnc5cc(Cl)ccc45)cc3)[nH]c(=O)c2C#N)c2ccccc12 | > 100 | > 32.7 | 8.01 | 49.7 | 29.7 | > 23.4 | > 100 | 71.7 | > 79.1 | > 100 |  |  |  |  |  |  |  |  |  | 
CC(=O)c1c(C(F)(F)F)n([O-])c2cc(Cl)c(Cl)cc2[n+]1=O | 0.563 | 3.37 | 2.47 | 2.5 | 1.09 | 2.27 | 1.34 | 0.8 | 0.498 | 4.85 |  |  |  |  |  |  |  |  |  | 
O=C(Nc1nc2ccccc2s1)c1cc([N+](=O)[O-])ccc1Cl | 8.77 | 86.3 | > 100 | > 100 | > 100 | > 100 | > 51.4 | > 30.9 |  | > 76.4 |  |  |  |  |  |  |  |  |  | 
CN1CCN(CCCBr)CC1 | > 100 | > 100 | > 100 | > 100 | > 100 | > 100 | > 100 | > 100 | > 100 | > 100 |  |  |  |  |  |  |  |  |  | 
COc1ccc(NC(C)=O)cc1N1C(=O)/C(=C\c2cc(OC)c(OC)c(OC)c2)SC1c1ccccc1 (configuration not stated) | > 100 | > 100 | > 100 | > 100 | > 100 | > 100 | > 100 | > 100 | > 100 | > 100 |  |  |  |  |  |  |  |  |  | 
COc1cc(C2c3cc4c(cc3OC(NNC(N)=O)C2C)OCO4)cc(OC)c1O (configuration not stated) | > 100 | 33.7 | > 100 | 35.7 | > 73.8 | > 100 | > 100 | > 100 | > 100 | > 76.1 |  |  |  |  |  |  |  |  |  | 
O=C(Cn1c(C(=O)/C=C/c2cccs2)nc2ccccc21)c1ccc(Cl)cc1 |  | > 100 | 54.7 | 57.9 | 89.5 | > 100 | > 100 | 63.6 | 77.7 | 38.4 |  |  |  |  |  |  |  |  |  | 
COc1ccc(C)cc1Nc1nnc(-c2ccccc2N)s1 | > 100 | > 100 | > 100 | > 100 |  | > 100 | > 100 | > 100 | > 100 | > 100 |  |  |  |  |  |  |  |  |  | 
C/C=C(/C)C(=O)O[C@H](C[C@@H](C)[C@H]1CC(c2ccoc2)OC1=O)[C@@]1(C)C(=O)CCC2O[C@]21C (some centres not stated) | > 100 | > 100 | > 100 | > 100 | > 100 | > 100 | > 100 | > 100 | > 100 | > 100 |  |  |  |  |  |  |  |  |  | 
O=c1ccn(CC2(CO)CC(Cc3ccccc3)C2)c(=O)[nH]1 (configuration not stated) | > 100 | > 100 | > 100 | > 100 | > 100 |  | > 100 | > 100 | > 100 | > 100 |  |  |  |  |  |  |  |  |  | 
O=C(O)c1nc(-c2ccccc2)[nH]c1C(=O)O | 3.04 | 28.2 | 30.6 | 29.1 | 28.8 | 25.1 | 6.78 | 35.9 | 28.2 | > 82.8 |  |  |  |  |  |  |  |  |  | 

Compound | TGI [1] [µM] | TGI [2] [µM] | TGI [3] [µM] | TGI [4] [µM] | TGI [5] [µM] | TGI [6] [µM] | TGI [7] [µM] | TGI [8] [µM] | TGI [9] [µM] | TGI [10] [µM] | GI50 [1] [µM] | GI50 [2] [µM] | GI50 [3] [µM] | GI50 [4] [µM] | GI50 [5] [µM] | GI50 [6] [µM] | GI50 [7] [µM] | GI50 [8] [µM] | GI50 [9] [µM] | GI50 [10] [µM]
CCCCCCCCCCCCCCCCCCNc1ccn(C2OC(COP(=O)(O)OCC3OC(n4cc(F)c(NCCCCCCCCCCCCCCCCCC)nc4=O)CC3O)C(O)C2O)c(=O)n1 (configuration not stated) | > 100 | > 100 | > 100 | > 100 | > 100 | > 100 | > 100 | > 100 | > 100 | > 100 |  |  |  |  |  |  |  |  |  | 
COC(=O)[C@H]1CO[C@H]2C/C(C)=C/CC/C(C)=C/CC[C@@]3(C)O[C@@H]3C[C@H]21 | 28.1 | > 50 |  | > 50 | > 50 | > 50 | 24.2 | 33.8 | > 50 | 29 |  |  |  |  |  |  |  |  |  | 
CCNC(=O)c1cc(/C=C/c2ccc([N+](=O)[O-])o2)nc2ccccc12 | > 100 | > 100 | > 52.5 | 71 | > 91.9 | > 100 | > 100 | > 100 | > 65.8 | > 100 |  |  |  |  |  |  |  |  |  | 
C=C(CO[Si](C)(C)C(C)(C)C)C(C)=O | 9.01 | > 100 | 39.7 | > 100 | > 100 | > 100 | 38.9 | 44 | > 69.7 | 99.6 |  |  |  |  |  |  |  |  |  | 
C=C(C)C(O)C(O)c1c(OC)ccc2ccc(=O)oc12 (configuration not stated) | > 100 | > 100 | > 100 | > 100 | > 100 | > 100 | > 100 | > 100 | > 100 | > 100 |  |  |  |  |  |  |  |  |  | 
Cc1c2c(n(CCc3ccc(Cl)cc3)c1C)NC(c1ccccc1)C(C#N)S2(=O)=O (configuration not stated) | 5.07 | > 100 | > 80.2 | > 100 | > 100 | > 100 | > 100 | > 100 | > 100 | > 100 |  |  |  |  |  |  |  |  |  | 
COc1ccccc1NC(=O)CC(=O)N1N=C(C)C(N=Nc2ccc(C(=O)O)cc2)C1=O (configuration not stated) | > 100 | > 100 | > 100 | > 100 | > 100 | > 100 | > 100 | > 100 | > 100 | > 100 |  |  |  |  |  |  |  |  |  | 
Cc1ccc2c(c1C)C(=O)/C(=C/c1ccccc1C(=O)O)C2 | > 100 | > 100 | > 100 | > 100 | > 100 | > 100 | > 100 | > 100 | > 100 | > 100 |  |  |  |  |  |  |  |  |  | 
C/C(Nc1ccc(F)cc1)=C1/CCOC1=O | > 100 | > 100 | > 100 | > 100 | > 100 | > 100 | > 100 | > 100 | > 100 | > 100 |  |  |  |  |  |  |  |  |  | 
COc1ccc(-n2c(=O)n(C)c(=O)n2-c2ccc(OC)cc2)cc1 | > 100 | > 100 |  | > 100 | > 100 | > 100 | > 100 | > 100 | > 100 | > 100 |  |  |  |  |  |  |  |  |  | 
CCOC(=O)c1cc2c3c(c(C(C)=O)c(O)c2[nH]1)N(CC(C)CC)CC3 (configuration not stated) | > 100 | > 100 | 81.4 | > 100 | > 100 | > 100 | > 100 | > 100 | > 100 | > 100 |  |  |  |  |  |  |  |  |  | 
Cc1cc(N2CCCC2)nc(N(CCNc2ccnc3cc(Cl)ccc23)Cc2ccco2)n1 | > 100 | > 100 | 80.7 | 7.79 | 31.3 | 70.2 | 81.8 | > 100 | > 100 | 79.6 | 2.85 | 6.72 | 4.13 | 1.92 | 5.46 | 5.67 | 2.6 | 5.74 | 2.5 | 2.99
CCCC(=O)NC(Nc1ccc(S(=O)(=O)Nc2nc(C)cc(C)n2)cc1)(C(F)(F)F)C(F)(F)F | > 100 | > 100 | > 100 | > 100 | > 100 | > 100 | > 100 | > 100 | > 100 | > 100 |  |  |  |  |  |  |  |  |  | 
CC1=NN(c2nc(N)nc(/C(C#N)=C/c3cccn3-c3cc(Cl)cc(Cl)c3)n2)C(C)(C)C1 | > 100 | > 100 | > 100 | > 100 | > 100 | > 100 | > 100 | > 100 | > 100 | > 100 |  |  |  |  |  |  |  |  |  | 
CCCCCC(C)SC1(C(=O)OC)CC(OC(C)=O)C(NC(C)=O)C([C@H](OC(C)=O)[C@@H](COC(C)=O)OC(C)=O)O1 (some centres not stated) |  | > 100 | > 100 | > 100 | > 100 | > 100 | > 100 | > 100 | > 100 | > 100 |  |  |  |  |  |  |  |  |  | 
CC(C)(Oc1ccc(Cl)cc1)C(=O)N(C(=O)N1CCC(c2ccccc2)CC1)c1ccccc1 | > 100 | > 100 | > 100 | > 100 | > 100 | > 100 | > 100 | > 95.8 | > 100 | > 100 |  |  |  |  |  |  |  |  |  | 
N#Cc1ccccc1-c1nc2c3c(c(N)ccc3n1)C(=O)c1ccccc1-2 | > 100 | > 100 | > 100 | > 100 | > 100 | > 100 | > 100 | > 100 | > 100 | > 100 |  |  |  |  |  |  |  |  |  | 
